{"source": "the NIST ThermoML archive (doi:10.1016/j.fluid.2011.10.009)", "settings": "Liquid", "note": "Numbers after ± are expanded uncertainties.", "data": [{"compound": "Cc1cccc(C)c1", "note": "[1,3-dimethylbenzene]", "values": [{"measurement": "vapor or sublimation pressure", "setting": "412 K, Ebulliometric method (Recirculating still)", "value": "101.3 ± 1", "unit": "kPa"}]}, {"compound": "Cc1ccc(C)cc1", "note": "[1,4-dimethylbenzene]", "values": [{"measurement": "vapor or sublimation pressure", "setting": "411.4 K, Ebulliometric method (Recirculating still)", "value": "101.3 ± 1", "unit": "kPa"}]}, {"compound": "c1ccccc1", "note": "[benzene]", "values": [{"measurement": "vapor or sublimation pressure", "setting": "353.3 K, Closed cell (Static) method", "value": "101.3 ± 1", "unit": "kPa"}]}, {"compound": "C1CCCCC1", "note": "[cyclohexane]", "values": [{"measurement": "vapor or sublimation pressure", "setting": "353.7 K, Ebulliometric method (Recirculating still)", "value": "101.3 ± 1", "unit": "kPa"}]}, {"compound": "CCCCCCCCC", "note": "[nonane]", "values": [{"measurement": "vapor or sublimation pressure", "setting": "423.8 K, Ebulliometric method (Recirculating still)", "value": "101.3 ± 1", "unit": "kPa"}]}, {"compound": "Cc1ccccc1", "note": "[toluene]", "values": [{"measurement": "vapor or sublimation pressure", "setting": "383.4 K, Closed cell (Static) method", "value": "101.3 ± 1", "unit": "kPa"}, {"measurement": "vapor or sublimation pressure", "setting": "383.8 K, Closed cell (Static) method", "value": "101.3 ± 1", "unit": "kPa"}]}]}
